Patent publication US20220152012A1 (The Regents of the University of California, priority 2020, published 2022)
Like-named read-outs stand apart in the source and are kept apart here.

Assays:
[1] = test system: human hepatic stellate cells from normal non-fibrosis subjects; assay: ROS (DCFDA) after oxidative stress induced by palmitic acid or H2O2; type: cell-based; conditions: inducer alone: palmitic acid 0.5 mM or H2O2 25 μM, vs vehicle
Procedure: Reactive Oxygen Species (ROS) quantification. ROS production, as an index of oxidative stress, in stellate cells was measured using DCFDA fluorescence as described previously. In brief, cells were incubated with DCFDA (10 μmol/L) for 30 min.

[2] = test system: human hepatic stellate cells from non-fibrotic subjects; assay: Prevention of TGF-β or H2O2-induced collagen production (Sirius Red); type: cell-based; conditions: inducer alone: H2O2 25 μM or TGF-β 20 ng/mL, 24 h, vs vehicle
Procedure: Hepatic stellate cell fibrosis quantification.
Hepatic stellate cell fibrosis was assessed by measuring collagen content by Sirius Red staining kit.

[3] = cited from earlier work
[4] = cited from earlier work; remark: listed apart in the source
[5] = cited from earlier work; remark: listed apart in the source

OO [H2O2, hydrogen peroxide]
induction of stellate cell ROS levels [1]: 5.2 fold | increase of collagen content [2]: 266%

O=C(O[C@H]1[C@H](OC(=O)c2cccnc2)[C@@H](OC(=O)c2cccnc2)[C@H](OC(=O)c2cccnc2)[C@@H](OC(=O)c2cccnc2)[C@H]1OC(=O)c1cccnc1)c1cccnc1 [inositol hexanicotinate]
peak plasma level of nicotinic acid ([3]; 1,000 mg of IHN (˜910 mg nicotinic acid equivalent), oral): 0.2 µg/mL | time for hydrolysis of the ester bonds and release of free nicotinic acid ([3]; human serum): more than 48 hours | time of peak plasma levels of free nicotinic acid ([3]; oral doses of 0.8 to 4.2 g of inositol hexanicotinate, humans): 6 to 12 h | gastrointestinal absorption, average of orally ingested dose absorbed ([3]; oral): 70% | tolerability ([4]; in vivo): well tolerated | management of dyslipidemia ([4]; vs placebo (Keenan 2010)): no better than placebo

O=C(O)c1cccnc1 [niacin, nicotinic acid]
absorption ([5]; oral amounts of 3-4 grams): nearly complete | time of peak plasma levels of free nicotinic acid ([5]; oral dose of 1000 mg of nicotinic acid): 0.5 to 1 h | eliminated by the kidneys as unchanged niacin or nicotinuric acid ([5]; oral pharmacologic dose): Approximately 88% | peak plasma level of nicotinic acid ([5]; single oral dose of 1000 mg nicotinic acid): 30 µg/mL

CCCCCCCCCCCCCCCC(=O)O [palmitic acid]
induction of stellate cell ROS levels [1]: 3.6 fold

TGF-β
increase of collagen content [2]: 233%
